Patent publication US12544431B2, “Peptides for the treatment of cancer and/or metastasis” (BCN PEPTIDES, S.A., priority 2019, dated 2026)
Like-named read-outs stand apart in the source and are kept apart here. Marks after values point to notes of the source that are not given here. *1 amine or outer side, *2 acyl side, *3 side chain or, on linkers, in order; H or OH if unused. Where a SMILES comes first, the peptide text is derived from it. Bridges are numbered along the chain shown (N, C = ends). Roman numbers before positions name the chains, in order. [ ]: non-standard residue; d: D form. The star is where a group is joined. Phe(2,4,6-Me3) = Cc1cc(C)c(C[C@H](N)C(=O)O)c(C)c1; X1 = Cc1cc(C)c(CC(N[*:1])C(=O)[*:2])c(C)c1; pGlu = O=C1CC[C@@H](C(=O)O)N1; Octanoyl = CCCCCCCC(=O)*

Assays:
[1] = tested on: RH30 rhabdomyosarcoma cells; test: Matrigel-coated transwell invasion assay, RH30 cells; assay type: cell-based; conditions: % invasive cells vs non-treated control
Protocol: (§1) 10^5 RH30 or RD cells were plated in the upper chamber of a Matrigel-coated transwell (Corning) in 0.1 mL medium without FBS. Cells were previously incubated with different concentrations (0 nM, 100 nM, 200 nM, 500 nM and 1000 nM) of the peptides and peptide dimer for 48 hours, being also present in the medium during the cell invasion assay. In the lower chamber, 0.6 mL of medium with FBS was added. Cells were incubated at 37° ° C. for 24 hours.
(§2) After that, cells were fixed with 4% paraformaldehyde (Sigma) for 10 minutes, followed by washing with PBS. After removal of the Matrigel and remaining cells from the upper face of the membrane with a cotton swab, the cells present on the lower face were stained with a Hoechst dilution (Sigma) and were counted (5 fields for each well) with an inverted fluorescence microscope Nikon with a 10× objective. All experiments were made in triplicate. In Table 6 the % Invasiveness represents the mean percentage of invasive cells with respect to their controls.

[2] = In vitro stability, half-life in human plasma; assay type: in vitro ADME; conditions: 90% human plasma, 37° C., RP-HPLC, read-out: t½ (hours) in human plasma (converted)
Protocol: The peptides and peptide dimer synthesized and prepared in accordance with Example 1 were dissolved in water at a concentration of 6 mg/mL and warmed up to 37° C.
Human plasma was obtained as a lyophilized solid (K3 EDTA Plasma, BBI Solutions, code S112-1), reconstituted with sterile 0.9% sodium chloride solution and stored at −20° C. Human plasma was thawed and incubated at 37° C. before use.
The peptides and peptide dimer were incubated in 90% human plasma at 37° C. for different times and then precipitated with two volume equivalents of methanol. The samples were cooled in an acetone-carbon dioxide bath for a few seconds and centrifuged for 12 minutes at 4° C. at approximately 10,000 rpm. The supernatant was filtered with a 0.45 μm PVDF filter and analyzed in triplicate by RP-HPLC using an isocratic method (Eluent A=0.1% TFA in water; Eluent B=0.07% TFA in ACN, Column=Kromasil C8, 100 Å, 5 μm, 250×4.6 mm, Flow=1 mL/min, Wavelength: 220 nm, Injection volume=20 μL, Temperature=60° C.). The disappearance of the compound was determined in relation to the area of the initial time to calculate its half-life.

[3] = tested on: RD rhabdomyosarcoma cells; test: Matrigel-coated transwell invasion assay, RD cells; assay type: cell-based; conditions: % invasive cells vs non-treated control
Protocol: as §1, §2

[4] = 500 nM peptide, listed as Octanoyl-SEQ ID NO: 5—NH2

Row | Molecule | % Invasiveness RH30 ([1]; 100 nM peptide) | % Invasiveness RH30 ([1]; 100 nM peptide, listed as (SEQ ID NO: 6—NH2)2) | % Invasiveness RH30 ([1]; 200 nM peptide) | % Invasiveness RH30 ([1]; 500 nM peptide) | % Invasiveness RH30 ([1]; 1000 nM peptide) | half-life at 0.6 mg/mL [2] [h] | % Invasiveness RD ([3]; 500 nM peptide) | % Invasiveness RD ([3]; 1000 nM peptide) | % Invasiveness RD ([3]; 1000 nM peptide, listed as (SEQ ID NO: 6—NH2)2) | % Invasiveness RH30 ([1]; 100 nM peptide, listed as Ac-SEQ ID NO: 5—NH2) | % Invasiveness RD ([3]; 100 nM peptide) [%] | % Invasiveness RH30 [1, 4] | % Invasiveness RD [3, 4] | % Invasiveness RD ([3]; 200 nM peptide) [%] | % Invasiveness RD ([3]; 1000 nM peptide, listed as Octanoyl-SEQ ID NO: 8—NH2) | half-life at 0.6 mg/mL ([2]; human plasma (K3 EDTA)) [h]
1 | Cc1cc(C)c(C[C@H](NC(=O)[C@H](CCC(=O)O)NC(=O)[C@@H]2CCCN2C(=O)[C@H](CC(C)C)NC(=O)[C@H](CC(=O)O)NC(=O)[C@H](CSSC[C@H](NC(=O)[C@H](CO)NC(=O)[C@H](CC(N)=O)NC(=O)[C@H](CO)NC(=O)[C@H](CO)NC(=O)[C@H](CC(=O)O)NC(=O)[C@H](CCCNC(=N)N)NC(=O)[C@H](CCCCN)NC(=O)[C@@H]2CCC(=O)N2)C(=O)N[C@@H](CC(=O)O)C(=O)N[C@@H](CC(C)C)C(=O)N2CCC[C@H]2C(=O)N[C@@H](CCC(=O)O)C(=O)N[C@@H](Cc2c(C)cc(C)cc2C)C(=O)N[C@@H](CCCCN)C(N)=O)NC(=O)[C@H](CO)NC(=O)[C@H](CC(N)=O)NC(=O)[C@H](CO)NC(=O)[C@H](CO)NC(=O)[C@H](CC(=O)O)NC(=O)[C@H](CCCNC(=N)N)NC(=O)[C@H](CCCCN)NC(=O)[C@@H]2CCC(=O)N2)C(=O)N[C@@H](CCCCN)C(N)=O)c(C)c1 [(SEQ ID NO: 6-NH2)2 (disulfide bridge), (Pyr-Lys-Arg-Asp-Ser-Ser-Asn-Ser-Cys-Asp-Leu-Pro-Glu-Msa-Lys-NH2)2 (disulfide bridge)] (I: [pGlu]KRDSSNSCDLPE[Phe(2,4,6-Me3)]K-NH2 / II: [pGlu]KRDSSNSCDLPE[Phe(2,4,6-Me3)]K-NH2; disulfide I:9-II:9) | 82.46* % | significant reduction | 70.84* % | 78.26* % | 57.59* % | 33.1 | 64.71% | 25.36* % | significant decrease | – | – | – | – | – | – | –
2 | CC(=O)N[C@@H](CCCCN)C(=O)N[C@@H](CCCNC(=N)N)C(=O)N[C@@H](CC(=O)O)C(=O)N[C@@H](CO)C(=O)N[C@@H](CO)C(=O)N[C@@H](CC(N)=O)C(=O)N[C@@H](CO)C(=O)N[C@@H](CS)C(=O)N[C@@H](CC(=O)O)C(=O)N[C@@H](CC(C)C)C(=O)N1CCC[C@H]1C(=O)N[C@@H](CCC(=O)O)C(=O)NC(Cc1c(C)cc(C)cc1C)C(=O)N[C@@H](CCCCN)C(N)=O (stereo partly drawn) [Ac-SEQ ID NO: 5-NH2, Ac-Lys-Arg-Asp-Ser-Ser-Asn-Ser-Cys-Asp-Leu-Pro-Glu-Msa-Lys-NH2] (Ac-KRDSSNSCDLPE[X1]K-NH2) | 24.83* % | – | – | 18.49* % | – | 0.23 | 35.59% | – | – | significant reduction | 100.80 | – | – | – | – | –
3 | CCCCCCCC(=O)N[C@@H](CCCCN)C(=O)N[C@@H](CCCNC(=N)N)C(=O)N[C@@H](CC(=O)O)C(=O)N[C@@H](CO)C(=O)N[C@@H](CO)C(=O)N[C@@H](CC(N)=O)C(=O)N[C@@H](CO)C(=O)N[C@@H](CS)C(=O)N[C@@H](CC(=O)O)C(=O)N[C@@H](CC(C)C)C(=O)N1CCC[C@H]1C(=O)N[C@@H](CCC(=O)O)C(=O)N[C@@H](Cc1c(C)cc(C)cc1C)C(=O)N[C@@H](CCCCN)C(N)=O [Octanoyl-SEQ ID NO: 5-NH2, Octanoyl-Lys-Arg-Asp-Ser-Ser-Asn-Ser-Cys-Asp-Leu-Pro-Glu-Msa-Lys-NH2] (Octanoyl-KRDSSNSCDLPE[Phe(2,4,6-Me3)]K-NH2) | 120.81% | – | – | 41.12* % | – | 0.15 | 14.16* % | – | – | – | 56.90 | significant reduction | significant decrease | – | – | –
4 | CCCCCCCC(=O)N[C@@H](CCCCN)C(=O)N[C@@H](CCCNC(=N)N)C(=O)N[C@@H](CC(=O)O)C(=O)N[C@@H](CO)C(=O)N[C@@H](CO)C(=O)N[C@@H](CC(N)=O)C(=O)N[C@@H](CO)C(=O)N[C@@H](CCSC)C(=O)N[C@@H](CC(=O)O)C(=O)N[C@@H](CC(C)C)C(=O)N1CCC[C@H]1C(=O)N[C@@H](CCC(=O)O)C(=O)NC(Cc1c(C)cc(C)cc1C)C(=O)N[C@@H](CCCCN)C(N)=O (stereo partly drawn) [Octanoyl-SEQ ID NO: 8-NH2, Octanoyl-Lys-Arg-Asp-Ser-Ser-Asn-Ser-Met-Asp-Leu-Pro-Glu-Msa-Lys-NH2] (Octanoyl-KRDSSNSMDLPE[X1]K-NH2) | 88.38% | – | 99.30% | 71.92% | 74.06% | 3.6 | 63.27% | 15.89* % | – | – | 75.55 | – | – | 113.22 | significant decrease | –
5 | Ac-RDSSNSCDLPEF-NH2 [Ac-SEQ ID NO: 10-NH2, Ac-Arg-Asp-Ser-Ser-Asn-Ser-Cys-Asp-Leu-Pro-Glu-Phe-NH2, reference compound] | 83.91% | – | – | 113.68% | – | – | 59.90% | – | – | – | 106.77 | – | – | – | – | 0.32
